# From ChEMBL document CHEMBL1201862, “PubChem BioAssay data set” (2004)
# Active and inactive are the calls of the source.
# Biological target: T1, Heat shock factor protein 1 (Mus musculus, UniProt P38532)
# T1 sequence (P38532 whole entry): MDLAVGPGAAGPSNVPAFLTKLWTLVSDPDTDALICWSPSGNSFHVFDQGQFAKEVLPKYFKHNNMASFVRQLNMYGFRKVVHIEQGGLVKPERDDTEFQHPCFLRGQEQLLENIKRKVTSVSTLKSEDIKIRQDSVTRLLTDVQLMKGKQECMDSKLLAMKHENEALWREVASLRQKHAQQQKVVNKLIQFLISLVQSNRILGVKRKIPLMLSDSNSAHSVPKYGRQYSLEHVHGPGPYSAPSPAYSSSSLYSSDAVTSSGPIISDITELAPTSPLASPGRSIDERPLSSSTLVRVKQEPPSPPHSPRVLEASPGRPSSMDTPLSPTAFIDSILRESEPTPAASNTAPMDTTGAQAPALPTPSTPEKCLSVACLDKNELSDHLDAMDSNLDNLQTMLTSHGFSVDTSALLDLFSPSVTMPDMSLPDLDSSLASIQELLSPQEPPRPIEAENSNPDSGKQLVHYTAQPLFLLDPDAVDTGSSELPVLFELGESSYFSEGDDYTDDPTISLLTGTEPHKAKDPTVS
# Test: inhibition of MG132-induced HSE-luciferase signal, confirmation, cell-based, NIH3T3, luminescence, dose retest (AID 2382);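 note: NIH3T3 fibroblasts with HSF1-driven luciferase reporter stressed by proteasome inhibitor MG132; luminescence from HSF1-driven luciferase expression after 8 hours of MG132 stress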
# Type: functional
# Settings: not given
row,Structure (SMILES),EC50
1,O=C(CCc1nc(O)c2ccccc2n1)NCc1ccco1,> 195 µM (not active)

# System: not listed separately
# Test: inhibitors of intracellular T. cruzi replication, confirmation, NIH3T3 host cells, beta-gal luminescence (AID 2044);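 note: intracellular parasites grown in NIH/3T3 mouse fibroblasts as host cells; luminescent beta-galactosidase reporter signal from transgenic T. cruzi replicating inside host cells; inhibitors lower the luminescence signal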
# Type: functional, cell-based
# Settings: not given
row,Structure (SMILES),EC50
1,CCCCCn1c(N)c(-c2nc3ccccc3s2)c2c([N+](=O)[O-])nn(C)c(=O)c21,2.14 µM (active)
2,O=C(c1ccco1)N1CCN(C(=O)c2cc(-c3ccncc3)nc3ccc(Br)cc23)CC1,3.83 µM (active)

# System: not listed separately
# Test: growth suppression of PTEN-null colon cells, dose response, cell-based, HCT116 PTEN knockout (AID 1047);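 note: HCT116 colon tumor cells with PTEN knocked out; cells exposed to compound for 60 hours before readout; potency for loss of cell viability measured by luminescence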
# Type: functional
# Settings: not given
row,Structure (SMILES),EC50
1,COc1ccc(-c2nc3c(c4nnc(SC(C)C(=O)Nc5ccccc5)n24)COC(C)(C)C3)cc1 (configuration not stated),9.44 µM (active)
2,CCN(CC)CCNc1ncnc2c1sc1nc(N3CCOCC3)c3c(c12)CC(C)(C)SC3,8.46 µM (active)
3,CCC(Sc1nnc2c3ccccc3n(CC)c2n1)C(=O)Nc1sc2c(c1C#N)CCCC2 (configuration not stated),11.7 µM (active)
4,CCCCCn1c(N)c(-c2nc3ccccc3s2)c2c([N+](=O)[O-])nn(C)c(=O)c21,10.1 µM (active)
5,CS(=O)(=O)N(CC(=O)N/N=C/c1cc([N+](=O)[O-])ccc1Cl)c1ccccc1,26.4 µM (active)
6,CS(=O)(=O)N(CC(=O)N1CCN(Cc2ccc3c(c2)OCO3)CC1)Cc1ccc(Cl)cc1,497 µM (active)
7,CCOC(=O)C(C(=O)OCC)C(Nc1ccc(Br)cc1)c1ccccc1 (configuration not stated),276 µM (active)

# System: not listed separately
# Test: cytotoxicity toward NIH3T3 fibroblasts, dose response, counter-screen, cell-based, ATP luminescence, mouse fibroblasts (AID 2010);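 note: cells exposed to compound for about 90 hours before reading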
# Type: functional
# Settings: not given
row,Structure (SMILES),EC50
1,CCCCCn1c(N)c(-c2nc3ccccc3s2)c2c([N+](=O)[O-])nn(C)c(=O)c21,> 60 µM (not active)
2,O=C(c1ccco1)N1CCN(C(=O)c2cc(-c3ccncc3)nc3ccc(Br)cc23)CC1,> 60 µM (not active)

# System: not listed separately
# Test: growth suppression of beta-catenin-knockout colon cells, dose response, cell-based, HCT116, human colon tumor (AID 1045);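 note: HCT116 colon tumor cells with beta catenin knocked out; cells exposed to compound for 60 hours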
# Type: functional
# Settings: not given
row,Structure (SMILES),EC50
1,COc1ccc(-c2nc3c(c4nnc(SC(C)C(=O)Nc5ccccc5)n24)COC(C)(C)C3)cc1 (configuration not stated),8.77 µM (active)
2,CCN(CC)CCNc1ncnc2c1sc1nc(N3CCOCC3)c3c(c12)CC(C)(C)SC3,7.85 µM (active)
3,CCC(Sc1nnc2c3ccccc3n(CC)c2n1)C(=O)Nc1sc2c(c1C#N)CCCC2 (configuration not stated),10.4 µM (active)
4,CCCCCn1c(N)c(-c2nc3ccccc3s2)c2c([N+](=O)[O-])nn(C)c(=O)c21,12.5 µM (active)
5,CS(=O)(=O)N(CC(=O)N/N=C/c1cc([N+](=O)[O-])ccc1Cl)c1ccccc1,24.4 µM (active)
6,CS(=O)(=O)N(CC(=O)N1CCN(Cc2ccc3c(c2)OCO3)CC1)Cc1ccc(Cl)cc1,77.1 µM (active)

# System: not listed separately
# Test: Luminescence Cell-Based Dose Retest to Confirm Inhibitors of Cancer Stem Cells. [Related pubchem assays (depositor defined):AID2717, AID2721]
# Type: functional
# Settings: Homo sapiens
row,Structure (SMILES),AC50
1,CCN(CC)CCNc1ncnc2c1sc1nc(N3CCOCC3)c3c(c12)CC(C)(C)SC3,8.39 µM (active)
2,CCOC(=O)C(C(=O)OCC)C(Nc1ccc(Br)cc1)c1ccccc1 (configuration not stated),8.85 µM (active)

# Biological target: T1, Heat shock factor protein 1
# Test: HSF1 potentiators in luciferase reporter cells, confirmation, cell-based, NIH3T3, luminescence, dose retest (AID 435004);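 note: stress induced by proteasome inhibitor MG132 added 30 min after compound; luciferase reporter driven by HSF1 response element in NIH3T3 cells; actives raise luminescence as potentiators of the MG132 stress response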
# Type: functional
# Settings: not given
row,Structure (SMILES),EC50
1,COc1ccc(/C=C/C(=O)C23CC4CC(CC(C4)C2)C3)cc1CN1CCOCC1,46 µM (active)
2,COCC(C)NC(=O)/C(=C/c1ccccc1)c1ccccc1 (configuration not stated),> 260 µM (inactive)
3,CCOC(=O)c1c(C)c(C(=O)Nc2ccc3c(c2)OCO3)c(C)n1C,> 260 µM (inactive)
4,c1ccc(SCCOCCN2CCOCC2)cc1,> 260 µM (inactive)
5,NC(=O)c1nsc(C(=O)N(c2ccccc2)C(C(=O)NCC2CCCO2)c2cccs2)c1N (configuration not stated),> 260 µM (inactive)
6,CC1CN(C(=O)CS(=O)(=O)Cc2ccccc2)CC(C)O1 (configuration not stated),> 260 µM (inactive)
7,NCCc1nnc(SCc2ccc(F)cc2)o1,> 260 µM (inactive)
8,CSc1ccc(C2C(C#N)=C(N)N(c3ccccc3)C3=C2C(=O)CCC3)cc1 (configuration not stated),27 µM (active)
9,C=CCNCCOCCSc1ccc(Cl)cc1,> 260 µM (inactive)
10,O=C1CC(NNc2ccccc2)C(=O)N1c1ccccc1 (configuration not stated),> 260 µM (inactive)
11,CCOC(=O)C(C(=O)OCC)C(Nc1ccc(Br)cc1)c1ccccc1 (configuration not stated),15.2 µM (active)

# Biological target: FAD-linked sulfhydryl oxidase ALR (Homo sapiens, UniProt P55789)
# Sequence (P55789 whole entry): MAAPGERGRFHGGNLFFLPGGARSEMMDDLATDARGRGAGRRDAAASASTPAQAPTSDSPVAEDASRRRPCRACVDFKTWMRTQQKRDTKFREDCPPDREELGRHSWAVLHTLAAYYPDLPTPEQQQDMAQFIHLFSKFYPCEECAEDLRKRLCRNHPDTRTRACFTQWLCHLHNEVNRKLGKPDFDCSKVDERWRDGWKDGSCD
# Test: inhibitors of human ALR sulfhydryl oxidase, dose response, biochemical, H2O2 detection, luminescence, cherry-pick (AID 493248)
# Settings: not given
row,Structure (SMILES),AC50
1,O=C1CC(NNc2ccccc2)C(=O)N1c1ccccc1 (configuration not stated),382 nM (active)

# System: not listed separately
# Test: cells
# Type: functional
# Settings: not given
row,Structure (SMILES),IC50
1,COc1cccc(COC(=O)CCNC(=O)c2ccc(Cl)cc2)c1OC,25.5 µM (active)
2,CC(C)(O)C#Cc1ccc(C(=O)Nc2ccc3c(c2)OCO3)s1,5 µM (active)
3,CCC(C)c1ccc(OCCn2ccnc2)cc1 (configuration not stated),22.6 µM (active)
4,O=c1oc2ccccc2c2c1nc(C(F)(F)F)n2-c1ccccc1,11.4 µM (active)
5,CCOC(=O)COc1cc([N+](=O)[O-])cc2cccnc12,46.4 µM (active)

# System: INS1
# Test: beta cell apoptosis inhibitors, cytokine rescue, dose response, luminescence, retest (AID 449756);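 note: cell death triggered by IL-1 beta plus TNF-alpha plus IFN-gamma mixture; protective hits raise ATP signal compared with cytokine alone wells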
# Type: functional, cell-based
# Settings: Rattus norvegicus
row,Structure (SMILES),AC50
1,CCN(CC)CCNc1ncnc2c1sc1nc(N3CCOCC3)c3c(c12)CC(C)(C)SC3,12.5 µM (active)

# System: H9c2;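 note: confirmatory concentration-response retest of ultra-high-throughput screening hits for modulation of myocardial damage; cell death induced by hydrogen peroxide oxidative stress; compound pretreatment for 60 min then peroxide exposure for 2 h; potency is for protecting the cells against peroxide damage rather than for killing them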
# Test: cells
# Type: functional, cell-based
# Settings: Rattus norvegicus, H9c2, Myocardium
row,Structure (SMILES),IC50
1,O=C(CCc1nc(O)c2ccccc2n1)NCc1ccco1,> 79 µM (inactive)
2,Cc1ccc(N2CC(C(=O)NCc3nnc(O)c4ccccc34)CC2=O)cc1C (configuration not stated),> 79 µM (inactive)
3,Cc1ccccc1/N=C/c1cc2c(cc1[N+](=O)[O-])OCO2,> 79 µM (inactive)
4,O=C(c1ccco1)N1CCN(C(=O)c2cc(-c3ccncc3)nc3ccc(Br)cc23)CC1,7.04 µM (active)
